Assays:
Format in all cases: cell-based
RUNX2 = assay: TAZ activity of stimulating RUNX2 function (6xOSE-luc reporter in 293T cells); settings: for activity at 10 µM: Homo sapiens, HEK-293T, 24 hours, 293T cells, percentage based on non-treated control cells, read-out: Activity (%): osteocalcin promoter activity; for Additional stimulating activity on TAZ stimulation of RUNX2: 10 μM, considered additional when value exceeds 570% of the average increase by protein TAZ
Description: Introduced in 293T cells were introduced RUNX2 and TAZ expression vector together with 6×OSE-luc (osteocalcin-specific element linked to luciferase, six copies of RUNX2-binding site in the osteocalcin promoter linked to luciferase) [Hong et al., Science 2005; 309:1074-8]. This test was for an evaluation of an activity of the inventive compounds in stimulating the luciferase activity which increases when RUNX2 binds to TAZ.
After 24 hours, the cells were treated with each of the inventive compounds to a concentration of 10 μM and then further cultivated for 24 hours. The procedure of Test 2 was repeated to extract the cell protein, and then reporter gene analysis was conducted to quantify the effect of the inventive compounds on the TAZ activity in stimulating RUNX2. For comparing the transformation efficaciency, β-galactosidase expression vector (pCMVβ) was introduced to 293T cells and the β-galactosidase activity was measured for calibration.
The osteocalcin promoter activity was analyzed in percentage term based on that of non-treated cells in a control group. When the value exceeds 570% of the average increase by protein TAZ, the compound was considered to have an additional stimulating activity.

PPARγ = assay: TAZ activity of inhibiting PPARγ function (aP2-luc reporter in 293T cells); settings: Homo sapiens, HEK-293T, 24 h, percentage based on inhibitory effect in non-treated control cells, read-out: Increased inhibition (%) of aP2 promoter activity
Text: 293T cells (ATCC) were placed in the wells of a 48-well plate (1×10^5 cells/well) and stabilized. Introduced to the cells were PPARγ and TAZ expression vectors together with vectors aP2-luc (adipose fatty acid binding protein 2 promoter linked to luciferase) and pCMVβ Hong et al., Science 2005; 309:1074-8]. For observing the effect on transcription activation of the target gene by the PPARγ or TAZ protein expression, aP2-luc reporter gene was also introduced into the cells. For calibration of the introduction efficiency in cells, vector pCMVβ was introduced in cells in same amounts and the β-galactosidase activity was measured to calibrate the luciferase activity.
After 24 hours, the cells were treated with each of the inventive compounds to a concentration of 10 μM and then further cultivated for 24 hours. Proteins of the resulting cells were extracted with a lysis solution comprising NP-40, and thus luciferase activity was measured (Promega, Sunnyvale, Calif., USA).
Increased inhibitory effect on the aP2 promoter activity was analyzed and the results were calculated in percentage term based on the inhibitory effect on the aP2 promoter activity observed for the non-treated cells in a control group.

C3H10T1/2 cells = assay: Differentiation of C3H10T1/2 cells into osteoblasts (Alizarin red S staining); settings: 10 μM, after 20 days
Description: C3H10T1/2 cells (ATCC CCL 226) were diluted in a α-MEM medium comprising 10% FBS, cultivated in a 96-well plate (1×10^4 cells/well) for 48 hours, and the medium was replaced every 48 hours to observe the osteoblast differentiation. On the initiation of differentiation, the medium was treated with 10 μM of each of the inventive compounds.
After 20 days, the cells were fixed with 70% ethanol and stained with an Alizarin red S solution to confirm increased calcium in osteocytes. In the Alizarin red staining test, the degrees of osteoblast differention can be identified by the intensity of red color.

protein TAZ = target: T1, protein TAZ (Homo sapiens, UniProt Q9GZV5); assay: Stimulating TAZ protein migration toward nucleus (GFP-TAZ high-content imaging); settings: 0.5 h, after 30 minutes, Cos cells, percentage based on non-treated control cells, read-out: Expression (%): GFP expression of protein TAZ in the nucleus
T1 construct: introducing full length TAZ cDNA synthesized by PCR method into vector pEGFP; expressed in transfected cells
Description: Vector pEGFP-TAZ in which GFP (green fluorescence protein) is linked to protein TAZ was prepared, and nucleus specific histone protein (RFP-H2B) expression vector having introduced RFP (red fluorescence protein) therein was prepared. The vector pEGFP-TAZ was prepared by introducing full length TAZ cDNA synthesized by PCR method into vector pEGFP (Invitrogen, Carlsbad, Calif., USA) and then cloning. The expression vector RFP-H2B was prepared by introducing full length histone H2B cDNA into expression vector RFP (Clontech Laboratories, Inc., Palo Alto, Calif., USA) and then cloning.
Cos? cells (ATCC, Manassas, Va.) were distributed to each well of a 96-well plate (5×10^3 cells/well) and stabilized, and then vectors pEGFP-TAZ and RFP-H2B were introduced into the cells by employing Effectene™ (Qiagen). After 48 hours, the cells were treated with each of the inventive compounds to a concentration of 10 μM. After 30 minutes, the movement of green fluorescent color toward the cell nucleus was observed continually by employing BD Pathway™ high-content bioimager (BD bioscience). Using a quantification program (BD IPLab™ for Pathway and BD™ Image Data Explorer), GFP expression in the nucleus of RFP-expressed cells was quantified.
GFP expressions of protein TAZ in the nucleus were analyzed and calculated in percentage term based on that of non-treated cells in a control group, which are shown in Table 3.

3T3-L1 preadipocytes = assay: Differentiation of 3T3-L1 cells into adipocytes (Oil-red O staining); settings: for Inhibition of adipocyte differentiation (Oil-red O staining): compound added at each medium replacement, after 8 days
Description: 3T3-L1 preadipocytes (ATCC CL-173) were dispersed in a DMEM medium comprising 10% FBS (fatal bovine serum , and then confluently cultivated for 48 hours in a 24-well plate (3×10^4 cells/well). 2 μM rosiglitazone, 5 μg/mL insulin, and 1 μM dexamethasone were added thereto to induce adipocyte differentiation.
After 48 hours, the medium was replaced with a DMEM comprising 5 μg/mL insulin and 10% FBS (fatal bovine serum), and 48 hours later, the medium was replaced with a DMEM comprising 10% FBS. Then, the medium was replaced every 48 hours to evaluate adipocyte differentiation. The inventive compounds were each added during the replacement of the medium. After 8 days, the cells were fixed with 10% formalin, and Oil-red O staining was conducted to confirm adipocytes generated in cells.

T1 sequence (Q9GZV5 whole entry): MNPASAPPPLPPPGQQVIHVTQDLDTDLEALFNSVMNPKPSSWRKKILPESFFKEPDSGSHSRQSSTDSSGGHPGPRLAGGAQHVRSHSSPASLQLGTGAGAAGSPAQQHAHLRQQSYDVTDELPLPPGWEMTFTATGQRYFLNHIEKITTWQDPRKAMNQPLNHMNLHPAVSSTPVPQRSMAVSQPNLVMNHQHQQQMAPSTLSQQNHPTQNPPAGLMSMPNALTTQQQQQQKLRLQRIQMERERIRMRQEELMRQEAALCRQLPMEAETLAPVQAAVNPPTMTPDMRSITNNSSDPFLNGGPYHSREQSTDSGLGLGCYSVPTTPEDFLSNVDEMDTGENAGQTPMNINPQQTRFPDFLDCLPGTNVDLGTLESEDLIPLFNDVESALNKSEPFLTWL

Row | activity at 10 µM (protein TAZ) [%] | Structure (SMILES) | activity at 10 µM (RUNX2) [%] | inhibition at 10 µM (PPARγ) [%] | Stimulation of osteoblast differentiation (Alizarin red staining) (C3H10T1/2 cells) | Inhibition of adipocyte differentiation (Oil-red O staining) (3T3-L1 preadipocytes) | Inhibition of adipocyte differentiation at a higher concentration (3T3-L1 preadipocytes; treating at a higher concentration) | Additional stimulating activity on TAZ stimulation of RUNX2 (RUNX2)
1 | 151 | CCCCc1nc2c(C)cc(CO)nc2n1Cc1ccc(-c2ccccc2-c2nnn[nH]2)cc1 [V, {2-butyl-7-methyl-3-[2′-(1H-tetrazol-5-yl)biphenyl-4-ylmethyl]-3H-imidazo[4,5-b]pyridin-5-yl}methanol] | 468 | 32.3 | osteoblast differentiation was stimulated | – | – | –
2 | – | CCCCc1nc2cc(/C=C/c3ccccc3)c(C(=O)OC)cc2n1Cc1ccc(-c2ccccc2-c2nnn[nH]2)cc1 [XIII, methyl 2-butyl-5-styryl-1-[2′-(1H-tetrazol-5-yl)biphenyl-4-ylmethyl]-1H-benzimidazol-6-carboxylate] | 569 | 39.9 | – | – | – | –
3 | 157 | CCCCc1nc2cc(-c3cccnc3)c(C)nc2n1Cc1ccc(-c2ccccc2-c2nnn[nH]2)cc1 [III, 2-butyl-5-methyl-6-pyridin-3-yl-3-[2′-(1H-tetrazol-5-yl)biphenyl-4-ylmethyl]-3H-imidazo[4,5-b]pyridine] | 259 | > 60 | osteoblast differentiation was stimulated | adipocyte differentiation was inhibited | – | –
4 | 130 | CCc1nc2c(C)cc(CO)nc2n1Cc1ccc(-c2ccccc2-c2nnn[nH]2)cc1 [II, {2-ethyl-7-methyl-3-[2′-(1H-tetrazol-5-yl)biphenyl-4-ylmethyl]-3H-imidazo [4,5-b]pyridin-5-yl}methanol] | 473 | 43.2 | – | – | – | –
5 | 160 | CCCCc1nc2cc(C(O)c3ccccc3)c(C(OC)OC)nc2n1Cc1ccc(-c2ccccc2-c2nnnn2C(C)OCC)cc1 (centres unmarked) [VII, (2-butyl-5-dimethoxymethyl-3-{2′-[1-(1-ethoxyethyl)-1H-tetrazol-5-yl]biphenyl-4-ylmethyl}-3H-imidazo[4,5-b]pyridin-6-yl)phenylmethanol] | 476 | 46.7 | – | – | markedly increased inhibitory effect | –
6 | 147 | CCCCc1nc2cc(Br)c(COC(C)=O)nc2n1Cc1ccc(-c2ccccc2-c2nnnn2C(C)OCC)cc1 (centres unmarked) [IX, 6-bromo-2-butyl-3-{2′-[1-(1-ethoxyethyl)-1H-tetrazol-5-yl]biphenyl-4-ylmethyl}-3H-imidazo[4,5-b]pyridin-5-ylmethyl acetate] | 676 | 22.7 | – | – | – | additional stimulating activity was observed
7 | 149 | CCCCc1nc2cc(C(=O)OC)c(/C=C/c3ccccc3)cc2n1Cc1ccc(-c2ccccc2-c2nnn[nH]2)cc1 [XII, methyl 2-butyl-6-styryl-1-[2′-(1H-tetrazol-5-yl)biphenyl-4-ylmethyl]-1H-benzimidazol-5-carboxylate] | 296 | > 60 | – | adipocyte differentiation was inhibited | – | –
8 | 135 | CCCCc1nc2cc(-c3ccccn3)c(C(=O)OC)nc2n1Cc1ccc(-c2ccccc2-c2nnn[nH]2)cc1 [IV, methyl 2-butyl-6-pyridin-2-yl-3-[2′-(1H-tetrazol-5-yl)biphenyl-4-ylmethyl]-3H-imidazo[4,5-b]pyridine-5-carboxylate] | 463 | – | – | adipocyte differentiation was inhibited | – | –
9 | 134 | CCCCc1nc2c(C)c(-c3ccccc3)c(COCSC)nc2n1Cc1ccc(-c2ccccc2-c2nnn[nH]2)cc1 [XI, 2-butyl-7-methyl-5-((methylsulfanylmethoxy)methyl)-6-phenyl-3-[2′-(1H-tetrazol-5-yl)biphenyl-4-ylmethyl]-3H-imidazo[4,5-b]pyridine] | 754 | – | – | – | – | additional stimulating activity was observed
10 | – | CCCCc1nc2cc(Br)c(COC(C)=O)nc2n1Cc1ccc(-c2ccccc2-c2nnn[nH]2)cc1 [X, 6-bromo-2-butyl-3-[2′-(1H-tetrazol-5-yl)biphenyl-4-ylmethyl]-3H-imidazo[4,5-b]pyridin-5-ylmethyl acetate] | 672 | 57.5 | – | – | – | additional stimulating activity was observed
11 | 132 | CCCCc1nc2cc(-c3cccc[n+]3[O-])c(CF)nc2n1Cc1ccc(-c2ccccc2-c2nnn[nH]2)cc1 [VI, 2-butyl-5-fluoromethyl-6-(1-oxypyridin-2-yl)-3-[2′-(1H-tetrazol-5-yl)biphenyl-4-ylmethyl]-3H-imidazo[4,5-b]pyridine] | 483 | 51.3 | – | – | – | –
12 | – | CCCCc1nc2cc(C(O)c3ccccc3)c(C(OC)OC)nc2n1Cc1ccc(-c2ccccc2-c2nnn[nH]2)cc1 (centres unmarked) [VIII, {2-butyl-5-dimethoxymethyl-3-[2′-(1H-tetrazol-5-yl)biphenyl-4-ylmethyl]-3H-imidazo[4,5-b]pyridin-6-yl}phenylmethanol] | 688 | > 60 | – | – | – | additional stimulating activity was observed
